Assay results published in patent US7012072B2, “Pharmaceutical oxaliplatinum preparation for parenteral administration and method for obtaining same” (Debiopharm S.A., priority 2000, dated 2006).

Key:
Format in all cases: physicochemical
[1] = Preparation of concentrated oxaliplatin solutions in solvent with hydroxylated derivative; details: solvent with sufficient amount of 1,2-propanediol, glycerol, maltitol, sucrose or inositol
Protocol: One of the co-solvents chosen from 1,2-propanediol, glycerol and maltitol, respectively, is introduced into the receptacle at the same time as or prior to the addition of water to make the volume up to 25 ml, according to the corresponding volume/volume or weight/volume ratios as indicated in the various tables.
After returning to ambient temperature, namely approximately 20° C., a clarifying filtration operation is optionally carried out in order to ensure clarity.

[2] = Wet heat treatment of oxaliplatin solutions in an autoclave, observation after return to ambient temperature; details: for Observation after storage (black precipitate): degassed with argon; for Observatios: appearance of solution: 24 hours after treatment
Text: The mixtures as obtained by applying the method described in example 1, and according to the relative amounts indicated in table 1, […] well known to a specialist. […]

[3] = Wet heat sterilization, three successive cycles at 80° C., observation after 72 hours at refrigerator temperature; details: 10 mg/ml, 3 cycles 80° C. ± 2, 30 min, 24 h standing at approx. 20° C.
Protocol: They were then subjected to operations of wet heat sterilization by carrying out three successive cycles of heating at a temperature of 80° C., followed by a return to an ambient temperature of approximately 20° C.
The solutions thus treated were kept, before observation, at refrigerator temperature for 72 hours.

[4] = 10 mg/ml supersaturated, water for injectable preparation, 80° C. ± 2, 30 min

O=C1[O][Pt]2([NH][C@@H]3CCCC[C@H]3[NH]2)[O]C1=O [Oxaliplatin]
concentration of oxaliplatin obtained in the preparation [1]: over 7 mg/ml | Observation after storage ([2]; 10 mg/ml supersaturated, water for injectable preparation, no co-solvent, 120° C. ± 2, 90 min): presence of black precipitate | Observation after storage: appearance of solution [2, 4]: solution has a clear appearance | Observation after storage: precipitate [2, 4]: no presence of precipitate | Observation after storage (black precipitate) ([2]; 10 mg/ml, 1,2-propanediol/water 20/20 (V/V), 110° C. ± 2, 120 min): presence of | Observation after storage (black precipitate) ([2]; 10 mg/ml, 1,2-propanediol/water 20/20 (V/V), 120° C. ± 2, 150 min): presence of | Observatios: appearance of solution ([2]; 10 mg/ml, 1,2-propanediol/water 50/50 (V/V), 70° C. ± 2, 30 min): clear | Observation after storage (black precipitate) ([2]; 10 mg/ml, 85% glycerol/water 20/20 (V/V), 110° C. ± 2, 120 min): presence of | Observation after storage (black precipitate) ([2]; 10 mg/ml, 85% glycerol/water 20/20 (V/V), 120° C. ± 2, 150 min): presence of | Observatios: appearance of solution ([2]; 10 mg/ml, 85% glycerol/water 50/50 (V/V), 70° C. ± 2, 30 min): clear | Observation after storage (black precipitate) ([2]; 10 mg/ml, maltitol/water 50% (m/V), 110° C. ± 2, 120 min): presence of | Observation after storage (black precipitate) ([2]; 10 mg/ml, maltitol/water 50% (m/V), 120° C. ± 2, 150 min): presence of | Observatios: appearance of solution ([2]; 10 mg/ml, maltitol/water 50% (m/V), 70° C. ± 2, 30 min): clear | Observatios: appearance of solution ([2]; 12 mg/ml, maltitol/water 30% (m/V), 80° C. ± 2, 30 min): clear | Observations: appearance of solution ([3]; 1,2-propanediol/water for injectable preparation 50/50 (V/V)): clear appearance | Observations: appearance of solution ([3]; 85% glycerol/water for injectable preparation 50/50 (V/V)): clear appearance | Observations: appearance of solution ([3]; maltitol/water for injectable preparation 50% (m/V)): clear appearance
